According to patent US8580776B2, “Compositions and methods for treating neurodegenerating diseases” (The Board of Trustees of the University of Illinois, priority 2007, dated 2013):

What was measured:
[1] = system: APP; assay: Western blot of APP holo-protein and C-terminal fragments in brain extracts; format: in vivo, mice; details: cortical lysates, versus vehicle
Procedure: (§1) Brain tissue was homogenized in 8M urea. Total protein concentration was determined using the Bradford assay and BSA as standard. Proteins were separated on 8 or 15% SDS page gels, transferred to PVDF membrane and incubated with antibodies: anti-APP^645-694 G369 (1:4000), anti α-tubulin (T-9026, Sigma) (1:5000). Signals were detected using the ECL Kit (Amersham), band intensities calculated using Image J software (ImageJ 1.31V), and normalized to α-tubulin values.

[2] = system: NOS2; assay: NOS2 and NeuN staining in wild type mice treated with DSP4 and injected with Aβ1-42; format: in vivo; details: Aβ1-42 injected
Procedure: Genotyping was performed to confirm identity of NOS2 null and wild type littermates (FIG. 7A), and wild type mice treated with DSP4, and wild type mice treated with DSP4 and injected with oligomeric Aβ1-42 (FIG. 7B). One day later brain sections were analyzed for NOS2 (green) and NeuN (red) staining White arrows indicate neurons labeled with both antibodies.
Wild type and NOS2 null mice were treated with two i.p. injections of DSP4 as described below, and injected with oligomeric Aβ1-42 4 weeks after the second DSP4 injection. One day later brain sections were prepared from the mice, sections from wild type (FIG. 8A) and NOS2 null mice (FIG. 8B) were stained for SMI-32.
Slides were washed for 5 min. with PBS and blocked with 5% normal donkey serum in PBS at room temperature for 30 min. Primary antibodies were diluted in 1% normal donkey serum in PBS. […] Images were obtained on a Zeiss Axioplan2 fluorescence microscope equipped with an Axiocam MRm digital camera and Axiovision 4.2 imaging software.
Quantitative analysis of NOS2 positively staining cells was performed as described above. In brief, NOS2 positive containing neurons having large cell bodies were counted in 5 sections having a defined distance (0, 200 and 400 μm rostral and caudal) relative to the level of cortical injection, in brain sections from at least 3 or 4 animals per group. […]

[3] = system: LC noradrenergic neurons; assay: Lesion of the locus coeruleus with DSP4 in H6 mice; format: in vivo; details: DSP4 5 mg per kg i.p. every two weeks, H6 mice from age 3-4 months, sacrificed at 9 months
Procedure: Hemizygous male H6 mice (aged 3 to 4 months) were injected with vehicle or with DSP4 (5 mg per kg; i.p., every two weeks) and all mice were sacrificed at age 9 months. This protocol (a low, chronic dose) results in 70% loss of LC noradrenergic neurons. Brains were dissected, the left hemispheres were fast frozen in isopentane at −30° C. and stored at −80° C. for subsequent protein and RNA studies. The right hemispheres were processed for immunohistochemistry.
A chronic treatment paradigm was chosen using a relatively low dose (5 mg/kg) which may better reproduce the slow onset of NA dysfunction that is seen with aging in humans, and a gradual rather than abrupt loss of LC neurons.

[4] = system: BACE1, PSEN1, Adam10; assay: Western blot and PCR analysis of APP processing enzymes in 9 month-old mice; format: in vivo; details: data not shown
Procedure: as §1
Total cytoplasmic RNA from tissues was isolated using TRIZOL reagent, (Invitrogen/GIBCO); aliquots were converted to cDNA using random hexamer primers, and mRNA levels were estimated by quantitative touchdown PCR (QPCR). PCR conditions were 35 cycles of denaturation at 94° C. for 10 s; annealing at 58-64° C. for 15 s; and extension at 72° C. for 20 s on a Corbett Rotorgene Real-Time PCR unit (Corbett, Australia). PCR was done using Taq DNA Polymerase (Invitrogen), and contained SYBR Green (SybrGreen1 10,000× concentrate, diluted 1:10,000; Molecular Probes, Eugene, Oreg.). Relative mRNA concentrations were calculated from the takeoff point of reactions using manufacturer's software, and were normalized to α-tubulin, β-actin, and glyceraldehyde-3-phosphate dehydrogenase (GDH). Melting curve analysis and agarose gel electrophoresis ensured production of single and corrected size products. The primers used were: […]

CCN(CCCl)Cc1ccccc1Br [DSP4, N-(2-chloroethyl)-N-ethyl-2-bromobenzylamine]
levels of holoAPP [1]: no effect | NOS2 expression in neurons [2]: increases NOS2 expression in neurons | loss of LC noradrenergic (TH positive) neurons [3]: 70% | BACE1, PSEN1, Adam10 mRNA, BACE1 protein, human APP mRNA levels [4]: did not reveal any significant changes
